We go through two compounds from patent publication US6063964A, “5-hydroxymethyl-2-aminotetralins as cardiovascular agents” (Zambon Group S.p.A., priority 1997, dated 2000).

Test [1] concerns the target T1, dopaminergic receptors D2 (Oryctolagus cuniculus, UniProt G1T1Q0).
T1 construct: The central ear artery was cut into 3 mm-rings; from tissue; host or cells: central ear artery rings of male New Zealand rabbits
Put plainly: D2 activity in the rabbit ear artery (REA), electrically stimulated isolated artery rings. Conditions: rabbit central ear artery rings, electrically stimulated (10 Hz); cumulative administration; agonistic activity at peak of effect; read-out: D2 activity (REA) expressed as pD2, i.e. -logEC50 (converted). As to the method:
Evaluation of the D2 activity in the rabbit ear artery (REA)
Artery rings were prepared following the method described by Steinsland et al., Science, 1978, 443, 199, modified as follows.
Male New Zealand rabbits (weighing 2.5-3 Kg) were sacrificed by a pentobarbital intravenous injection and bled. The central ear artery was cut into 3 mm-rings.
The samples were placed into a 25 ml-bath containing a Krebs solution (mM/l): sodium chloride 118, potassium chloride 4.7, calcium chloride 2.5, magnesium sulphate 1.2, sodium hydrocarbonate 25, potassium biphosphate 1.2, glucose 11.1, balanced with oxygen 95%/carbon dioxide 5% and maintained at 35±1° C. The Krebs solution was added with EDTA (10 μM) to prevent the cathecolamine oxidation, with desipramine (0,1 μM) and corticosterone (30 μM) to stop the neuronal and extraneuronal cathecolamine re-uptake.
The samples were electrically stimulated (10 Hz, 1 msec., 40-80 mA, 500 msec long) at intervals of 5 minutes.
(§1) The tested compounds were cumulatively administered.
(§2) Dopamine was used as reference compound.

For test [2], the target named is dopaminergic receptors D1 (Oryctolagus cuniculus, UniProt G1SML2). Put plainly: D1 activity on the rabbit splenic artery (RSA), isolated artery rings contracted with U46619. The settings on record: cumulative administration, agonistic activity at peak of effect. As to the method:
Tests of dopaminergic activity on isolated tissues Evaluation of the D1 activity on the rabbit splenic artery (RSA)
Artery rings were prepared according to Semeraro et al., Naunyn. Schnied. Arch. […] These were contracted with U46619 (9,11-dideoxy-11α, 9α -epoxy-methanprostaglandine F2 α) at a submaximal concentration of […].
as §1, §2

Each structure is given as a SMILES string.

T1 sequence (G1T1Q0 1-443): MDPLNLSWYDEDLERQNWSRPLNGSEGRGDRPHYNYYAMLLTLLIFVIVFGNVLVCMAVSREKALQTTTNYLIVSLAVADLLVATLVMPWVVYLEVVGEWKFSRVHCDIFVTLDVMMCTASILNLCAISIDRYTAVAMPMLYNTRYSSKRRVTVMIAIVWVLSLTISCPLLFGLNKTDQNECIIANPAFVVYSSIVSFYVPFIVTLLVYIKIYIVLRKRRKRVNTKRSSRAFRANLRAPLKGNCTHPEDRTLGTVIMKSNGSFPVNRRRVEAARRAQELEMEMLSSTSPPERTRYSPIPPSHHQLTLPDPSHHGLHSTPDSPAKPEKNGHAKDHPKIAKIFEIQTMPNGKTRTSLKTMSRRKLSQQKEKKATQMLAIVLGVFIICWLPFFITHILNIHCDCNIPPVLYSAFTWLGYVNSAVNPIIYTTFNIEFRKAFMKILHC
dopaminergic receptors D1, sequence (G1SML2 1-448): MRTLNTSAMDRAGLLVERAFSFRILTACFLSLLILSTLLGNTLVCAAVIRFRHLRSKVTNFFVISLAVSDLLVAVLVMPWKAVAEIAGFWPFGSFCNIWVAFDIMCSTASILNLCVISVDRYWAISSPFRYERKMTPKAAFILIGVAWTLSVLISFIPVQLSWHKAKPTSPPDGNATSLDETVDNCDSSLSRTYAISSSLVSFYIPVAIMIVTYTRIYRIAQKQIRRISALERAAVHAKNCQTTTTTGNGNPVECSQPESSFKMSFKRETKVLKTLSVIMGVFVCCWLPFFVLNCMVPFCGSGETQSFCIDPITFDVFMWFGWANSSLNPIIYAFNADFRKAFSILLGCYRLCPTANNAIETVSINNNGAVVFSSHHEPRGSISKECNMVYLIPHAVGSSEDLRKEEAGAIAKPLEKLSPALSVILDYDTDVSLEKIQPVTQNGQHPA

As for `NCCc1ccc(O)c(O)c1` [Dopamine, reference compound], the EC50 in test [1] was 15.8 nM. As to `CCCN(CCC)[C@H]1CCc2c(ccc(O)c2CO)C1.O=C(O)/C=C\C(=O)O` [Example 6, (S)-N,N-dipropyl-6-hydroxy-5-hydroxymethyl-1,2,3,4-tetrahydro-2-naphthylamine maleate], the EC50 in test [1] was 10 nM. In addition, the “D1 activity (RSA) expressed as pD2, i.e. -logEC50” value in test [2] was 6.0.
